For one assay, the target named is T1, α-NAGA mutant (Homo sapiens, UniProt P17050, A191L/S188E).
T1 sequence (P17050 with tags, fused parts or gaps S188E/A191L): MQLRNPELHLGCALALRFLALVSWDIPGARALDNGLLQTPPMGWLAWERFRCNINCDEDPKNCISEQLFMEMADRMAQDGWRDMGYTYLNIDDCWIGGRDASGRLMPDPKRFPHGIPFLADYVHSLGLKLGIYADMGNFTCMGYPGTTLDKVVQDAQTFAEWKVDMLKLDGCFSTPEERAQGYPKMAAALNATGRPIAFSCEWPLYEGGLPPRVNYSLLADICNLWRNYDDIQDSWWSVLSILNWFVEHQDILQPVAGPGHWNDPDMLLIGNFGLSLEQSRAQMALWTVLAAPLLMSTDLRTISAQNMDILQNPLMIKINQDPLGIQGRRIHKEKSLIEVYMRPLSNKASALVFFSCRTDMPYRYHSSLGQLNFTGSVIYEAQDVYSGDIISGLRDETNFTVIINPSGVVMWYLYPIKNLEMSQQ
Kind of assay: Screening of inhibitor (2): inhibition of enzyme activity of α-NAGA mutant. The following applies: 0.1, 1, or 10 μM compound, pH 4.6, 37° C., 30 minutes; FIG. 1. It counts as biochemical. How it is done: The second screening was carried out as follows: DGJ, GBS, N-C-DGJ, N-DGJ, or N-HE-DGJ dissolved in purified water or DMSO was added to 25 ng of an α-NAGA mutant and 4 mM 4-methylumbelliferylα-D-galactopyranoside dissolved in 0.1 M phosphate-citrate buffer (pH 4.6) such that a concentration of DGJ, GBS, N-C-DGJ, N-DGJ, or N-HE-DGJ became 0.1, 1, or 10 μM, and the mixture thus obtained was caused to react at 37° C. for 30 minutes (the total amount was 50 μl). After the reaction was finished, 950 μl of 0.2 M glycine buffer (pH 10.7) was added to stop the reaction. Then, released 4-methylumbelliferone was measured at an excitation wavelength of 355 nm and at a fluorescence wavelength of 460 nm with use of Wallac 1420 ARVO MX Multilabel Counter. Remaining enzyme activity was calculated based on the assumption that an enzyme activity value obtained in a case where purified water or DMSO is added instead of the inhibitor candidate compound is 100%. FIG. 1 is a view illustrating inhibition of enzyme activity of an α-NAGA mutant by DGJ.

Assay [1] concerns the target T2, α-NAGA mutant (SEQ ID NO:8) (Homo sapiens, UniProt P17050, A191L/S188E).
T2 sequence (P17050 with tags, fused parts or gaps S188E/A191L): T1 sequence (P17050 with tags, fused parts or gaps S188E/A191L)
Nature of the assay: Screening of inhibitor (1): remaining enzyme activity of α-NAGA mutant with 4-methylumbelliferyl α-D-galactopyranoside. It counts as biochemical. The following applies: 400 μM compound, pH 4.6, 37° C., 30 minutes. How it is done:
The screening of inhibitor was carried out as follows: An inhibitor candidate compound dissolved in purified water or DMSO was added to 20 ng of an α-NAGA mutant (SEQ ID NO:8) and 4 mM 4-methylumbelliferylα-D-galactopyranoside dissolved in 0.1 M phosphate-citrate buffer (pH 4.6) such that a concentration of the inhibitor candidate compound became 0.8, 1, or 400 μM, and the mixture thus obtained was caused to react at 37° C. for 30 minutes (the total amount was 50 μl). After the reaction, 950 μl of 0.2 M glycine buffer (pH 10.7) was added to stop the reaction. Then, released 4-methylumbelliferone was measured at an excitation wavelength of 355 nm and at a fluorescence wavelength of 460 nm with use of Wallac 1420 ARVO MX Multilabel Counter. Remaining enzyme activity was calculated based on the assumption that an enzyme activity value obtained in a case where purified water or DMSO is added instead of the inhibitor candidate compound is 100%.

Assay [2] relates to cultivated fibroblast derived from a Fabry disease model mouse. Nature of the assay: Simultaneous addition of α-NAGA mutant and DGJ to cultivated fibroblast derived from Fabry disease model mouse. Format: cell-based. The following applies: 1 μg/mL α-NAGA mutant plus 0-500 μM DGJ, 24 hours; FIG. 5. The protocol:
A cultivated fibroblast derived from a Fabry disease model mouse was cultured at 37° C. under a 5% carbon dioxide environment with use of a DMEM medium to which a 10% fetal calf serum and an antibiotic substance had been added. First, concentration dependence of DGJ with respect to uptake efficiency of an α-NAGA mutant was analyzed. The cells were seeded to a 12-well plate at 1.0×10^5 cells/well. The medium was exchanged with an F-10 medium that contained 1 μg/mL of an α-NAGA mutant, any of concentrations (0, 1, 10, 100, and 500 μM) of DGJ, a 10% fetal calf serum, and an antibiotic substance, and cultivation was carried out for 24 hours. […] The homogenate thus obtained was subjected to centrifugal separation under conditions of 4° C. and 12,000 rpm, and the obtained supernatant liquid was used as samples for enzyme activity measurement, protein quantification, and Western blotting. […] Then, released 4-methylumbelliferone was measured at an excitation wavelength of 355 nm and at a fluorescence wavelength of 460 nm with use of Wallac 1420 ARVO MX Multilabel Counter (Perkin Elmer, Waltham, Mass.). Protein quantification was carried out with Micro BCA method (Micro BCA (trademark) Protein Assay Reagent Kit: Pierce) while using a concentration of bovine serum albumin (Albumin standard: Pierce Biotechnology, Inc., Rockford, Ill.) as a standard. […]

As to `OCC1NCC(O)C(O)C1O` [DGJ, (2R,3S,4R,5S)-2-(hydroxymethyl)piperdine-3,4,5-triol], the “inhibition of enzyme activity of an α-NAGA mutant (remaining enzyme activity)” value against α-NAGA mutant is recorded as “had the effect of inhibiting activity of an α-NAGA mutant”. Besides, the “inhibition effect on α-NAGA mutant (remaining enzyme activity)” value in assay [1] is listed as “the inhibition effect was seen”. Further, in assay [2], the “α-NAGA mutant enzyme activity in cells” value is recorded as “enzyme activity was improved”.
